Data as given in patent US9700547B2, “Use of 6-hydroxy-2-pyridones and derivatives thereof for preparing a pharmaceutical composition that acts by inhibiting the human uridine phosphorylase enzyme” (UNIÃO BRASILEIRA DE EDUCAÇÃO E ASSISTÊNCIA, MANTENEDORA DA …, priority 2013, dated 2017).

Columns and labels:
plasma uridine = test: uridine concentration in animals' plasma by HPLC (mucositis model); format: in vivo, female Wistar mouse; conditions: compound orally, either 50 mg/kg or 150 mg/kg
Protocol: (§1) The test compound was administrated via oral, 30 minutes before administrating the chemotherapeutic 5-FU that was administrated via intraperitoneal. This treatment was followed for 5 days with once a day administrations. In the 5th treatment day, the animals were euthanized using one inhalational anesthetic (isoflurane) and the initial portion of the intestine (corresponding to jejunum and ileus) was collected for myeloperoxidase analysis (MPO) and histological analysis of the tissue, as well blood collect for quantification analysis of the uridine in the plasma. The animals were also followed-up regarding weight loss and diarrhea.
The determination of the uridine concentration in the animals' plasma as performed by HPLC, using as mobile phase acetic acid 0.1%. First, it was made a calibration curve using commercial uridine as standard (Sigma) in the concentrations of 0.625-1.25-2.5-5.0-10.0-20.0 μM in mice plasma to keep the same matrix where the samples ones are. After the calibration curve, the plasma samples were analyzed of each group and was one positive result was achieved. As was expected, there was an increase of 4.4 times in the uridine concentration in the animals' plasma that received the compound orally, either in the dose of 50 mg/kg or in the dose of 150 mg/kg (FIGS. 5A and 5B). […]

hUP1-R1P = hUP1-R1P (Homo sapiens, UniProt Q16831); test: isothermal titration microcalorimetry (ITC), enzyme complexed with product ribose-1-phosphate; format: binding
hUP1-R1P, sequence (Q16831 whole entry): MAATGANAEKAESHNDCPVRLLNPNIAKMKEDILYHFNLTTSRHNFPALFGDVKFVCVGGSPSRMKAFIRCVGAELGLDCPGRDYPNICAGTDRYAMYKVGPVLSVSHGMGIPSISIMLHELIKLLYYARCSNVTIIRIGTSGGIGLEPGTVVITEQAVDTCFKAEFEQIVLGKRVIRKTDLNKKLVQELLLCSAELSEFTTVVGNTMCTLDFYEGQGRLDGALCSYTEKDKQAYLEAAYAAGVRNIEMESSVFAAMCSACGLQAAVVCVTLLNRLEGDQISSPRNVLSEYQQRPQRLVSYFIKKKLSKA
Protocol: (§2) For determining the thermodynamic parameters (enthalpy variation—ΔH, entropy variation—ΔS, and free energy variation of Gibbs—ΔG) were performed compounds binding essays to the enzyme in different conditions: free enzyme, complexed enzyme with the substrate Pi, and the complexed enzyme with the product ribose-1-phosphate (R1P). For such analyses, it was used isothermal titration microcalorimetry (ITC) where the equipment monitors the difference of transferred heat, between the reference cell and the sample cell, when bindings are formed or broken during the binding process. The data analysis achieved was performed through the model One Set of Sites and the determination of ΔG and the dissociation constant (KD) were through the equations (IV) and (V) below, respectively: ΔG=ΔH−TΔS (IV) KD=1/Ka (V)

hUP1-Pi = hUP1-Pi (Homo sapiens, UniProt Q16831); test: isothermal titration microcalorimetry (ITC), enzyme complexed with substrate Pi; format: binding
hUP1-Pi, sequence (Q16831 whole entry): as above
Protocol: as §2

[1] = tested on: intestinal mucositis caused by 5-FU; test: intestinal mucositis model caused by 5-FU (weight, diarrhea, villus histology); format: in vivo, female Wistar mouse; conditions: 5 days
Protocol: as §1, with “The compound c3 was tested in in vivo for evaluating its protection regarding intestinal mucositis caused by 5-FU. The mucositis model was developed in female Wistar mouse (180-200 g) and the animals were divided into 5 groups with 4 animals in each group: Group 1: Saline+Saline Group 2: Compound c3 (150 mg/kg)+saline Group 3: Saline+5-FU (50 mg/kg) Group 4: Compound c3 (50 mg/kg)+5-FU (50 mg/kg) Group 5: Compound c3 (150 mg/kg)+5-FU (50 mg/kg) The test” for “The test”

[2] = biological target: T1, Human Phosphorylase Uridine 1 (hUP1) (Homo sapiens, UniProt Q16831); test: hUP1 enzymatic assay, inhibition at 1 μM (UV absorbance of uridine at 280 nm); format: biochemical; conditions: 1 μM compound, 37° C.
T1 sequence (Q16831 whole entry): as above
Protocol: (§3) The enzymatic activity of the hUP1 is performed through the enzymatic essay using one spectrophotometer UV/visible where the absorbance reduction of uridine in 280 nm, for 1 min and at 37° C. was monitored.
For determining which inhibitors would be selected for determining the inhibition constant (Ki), one cut point of 1 μM was stipulated, where only those compounds that would inhibit more than 60% of the initial activity of the enzyme would be selected for this type of analysis (Table 1). From all compounds tested, 7 molecules had its inhibition above 60% with the concentration of 1 μM (Compounds c1, c2, c3, c4, c6, c12, and c13). All essays described on this patent application were performed for these compounds and for benzil acyclo uridine (BAU), in order to perform a direct comparison of the results achieved with the better in vitro inhibitor of the hUP1 described (standard).

[3] = biological target: T1, Human Phosphorylase Uridine 1 (hUP1); test: Ki and inhibition type from substrate saturation curves, double-reciprocal analysis; format: biochemical; conditions: for Inhibiting type for phosphate: substrate Pi; for Inhibition type for uridine: substrate uridine
Protocol: as §3
For determining Ki for the selected inhibitors, we performed saturation curves where the concentration of one of the substrates is fixed next to the Km and the concentration of another, varied until the saturation in fixed-varying concentrations of each one of the inhibitors.
(I) v=VA/[Ka(1+I/Kii)+A(1+Kis)] (II) v=VA/[A(1+I/Kis)+Ka] (III)

[4] = tested on: myeloperoxidase (MPO) in initial portion of the intestine; test: MPO analysis in repeated mucositis model; format: in vivo; conditions: 50 mg/kg orally of 8-8 h, starting 2 days before 5-FU and 2 further days with 5-FU
Protocol: The last in vivo analysis was regarding the MPO. The MPO is a primary answer of inflammation, present in neutrophils, and for that it was analyzed which is the best day of euthanasia to check this primary answer. The treatment schema lasted 5 days, where the animals were divided into 2 groups with 10 animals in each (Group Saline and Group 5-FU). The 5-FU (50 mg/kg) was administrated using the intraperitoneal via, as well the Saline. The animals were put into euthanasia in 24 h, 48 h, 72 h, 96 h and 120 h after the administration (days 1-5) and the initial portion of the intestine was collected. It was verified that the best day for MPO quantification would be day 2 (48 h after 5-FU administration), such as represented in the FIG. 6, in which the statistical analysis was performed though one-way ANOVA followed by Bonferroni test. The lines represent the standard error while each column represents the mean of two animals of each group. *Significant difference regarding group Saline (*p<0.05).
The first experiment of mucositis was repeated, with 3 groups having 5 animals in each (Group Saline+Saline, Group Saline+5-FU and Group Compound c3+5-FU). […] The animals were euthanized with isoflurane and the initial portion of the intestine was analyzed. […]

[5] = biological target: T1, Human Phosphorylase Uridine 1 (hUP1); conditions: literature value, said to be confirmed by own experiments; read-out: constant inhibition for uridine described on the literature; cited from earlier work
hUP1 = hUP1 (Homo sapiens, UniProt Q16831); test: isothermal titration microcalorimetry (ITC), free enzyme; format: binding
hUP1, sequence (Q16831 whole entry): as above
Protocol: as §2

[6] = c3 50 or 150 mg/kg oral 30 min before 5-FU 50 mg/kg intraperitoneal, once a day

Structure (SMILES) | Kd (hUP1-R1P; hUP1-R1P 50 μM) [nM] | ΔG° (hUP1-R1P; hUP1-R1P 50 μM) [kcal/mol] | ΔH° (hUP1-R1P; hUP1-R1P 50 μM) [kcal/mol] | Kd (hUP1-R1P; hUP1-R1P 150 μM) [nM] | ΔG° (hUP1-R1P; hUP1-R1P 150 μM) [kcal/mol] | ΔH° (hUP1-R1P; hUP1-R1P 150 μM) [kcal/mol] | Kd (hUP1-Pi) [nM] | ΔG° (hUP1-Pi) [kcal/mol] | ΔH° (hUP1-Pi) [kcal/mol] | −TΔS (kcal/mol/deg) (hUP1-Pi) | Inhibiting type for phosphate [3] | Inhibition type for uridine [3] | also measured
Cc1cc(O)[nH]c(=O)c1C#N [Compound c3] | 1400 ± 341 | -8.3 ± 2.0 | -31 ± 1.2 | 40 | -9.8 ± 1.4 | -21 ± 0.1 | 12000 ± 1400 | -6.9 ± 0.8 | -19 ± 1.3 | 12 ± 1.4 | Uncompetitive | Not competitive | increase in the uridine concentration in the animals' plasma (plasma uridine): 4.4 times; −TΔS (kcal/mol/deg) (hUP1-R1P; hUP1-R1P 50 μM): 22 ± 5.4 kcal/mol; −TΔS (kcal/mol/deg) (hUP1-R1P; hUP1-R1P 150 μM): 11 ± 1.5 kcal/mol; Kd (hUP1-R1P; hUP1-R1P 200 μM): 20 nM; ΔG° (hUP1-R1P; hUP1-R1P 200 μM): -11 ± 1.3 kcal/mol; ΔH° (hUP1-R1P; hUP1-R1P 200 μM): -22 ± 0.1 kcal/mol; −TΔS (kcal/mol/deg) (hUP1-R1P; hUP1-R1P 200 μM): 11 ± 1.3 kcal/mol; intestinal villus size (histological analysis) ([1]; both tested doses (50 and 150 mg/kg oral) + 5-FU 50 mg/kg intraperitoneal): statistically equal to the group Saline and different from the group 5-FU; protection from diarrhea caused by 5-FU [1, 6]: not able to avoid these side effects; protection from weight loss caused by 5-FU [1, 6]: not able to avoid these side effects; Inhibition with 1 μM (%) [2]: 70%; inhibition at 1 µM [2]: > 60%; MPO, primary inflammation process [4]: not able to revert the primary inflammation process
O=c1[nH]c(=O)n(COCCO)cc1Cc1ccccc1 [BAU, benzil acyclo uridine, reference compound] | 1200 ± 244 | -8.2 ± 1.7 | -12 ± 0.3 | 6600 ± 898 | -7.3 ± 1.0 | -20 ± 0.7 | 1400 ± 239 | -8.2 ± 1.4 | -13 ± 0.3 | 4.6 ± 0.8 | Not competitive | Competitive | Ki [5]: 100 nM; Kd (hUP1): 1200 ± 150 nM; ΔG° (hUP1): -8.4 ± 1.0 kcal/mol; ΔH° (hUP1): -10 ± 0.1 kcal/mol; −TΔS (kcal/mol/deg) (hUP1): 1.5 ± 0.2 kcal/mol/deg
